# Columns and labels:
# [1] = target: T1, Metabotropic glutamate receptor 5 (Homo sapiens, UniProt P41594); assay: Radioligand Binding Assay at Cloned Human mGluR5 Receptor Subtype: Affinity at transmembrane glutamate metabotropic cloned human mGluR5 receptor was evaluated according to the methods of Anderson (Anderson et al., J Pharmacol. Exp. Ther., (2002), Vol. 303(3), pp. 1044-51), with some modifications. Human cloned mGluR5 was obtained by re-suspending CHO T-REx h-mGluR5 cells (50 μg/well) in 20 mM HEPES, 2 mM MgCl2, 2 mM CaCl2, pH 7.4, that then were incubated in a final volume of 1 ml for 60 min at 25° C. with 4 nM [3H]MPEP in the absence or presence of competing drugs. Non-specific binding was determined in the presence of 10 μM MPEP. The incubation was stopped by addition of cold Tris buffer pH 7.4 and rapid filtration through 0.2% polyethyleneimine pretreated Filtermat 1204-401 (Perkin Elmer) filters. The filters were then washed with cold buffer and the radioactivity retained on the filters was counted by liquid scintillation spectrometry (Betaplate 1204 BS-Wallac).
# [2] = target: T1, Metabotropic glutamate receptor 5; assay: Fold Shift of Agonist Curve Determination: The PAM potency was evaluated by performing an agonist concentration response curve in the presence of the compounds. The compounds at fixed concentration (0.01 or 0.1 or 1 μM) were applied 10 minutes before the incubation of the agonist (quisqualate or glutamate) dose-response curve. The fold shift was determined as ratio of EC50 agonist curves in presence and in absence of test compound.
# T1 sequence (P41594 whole entry): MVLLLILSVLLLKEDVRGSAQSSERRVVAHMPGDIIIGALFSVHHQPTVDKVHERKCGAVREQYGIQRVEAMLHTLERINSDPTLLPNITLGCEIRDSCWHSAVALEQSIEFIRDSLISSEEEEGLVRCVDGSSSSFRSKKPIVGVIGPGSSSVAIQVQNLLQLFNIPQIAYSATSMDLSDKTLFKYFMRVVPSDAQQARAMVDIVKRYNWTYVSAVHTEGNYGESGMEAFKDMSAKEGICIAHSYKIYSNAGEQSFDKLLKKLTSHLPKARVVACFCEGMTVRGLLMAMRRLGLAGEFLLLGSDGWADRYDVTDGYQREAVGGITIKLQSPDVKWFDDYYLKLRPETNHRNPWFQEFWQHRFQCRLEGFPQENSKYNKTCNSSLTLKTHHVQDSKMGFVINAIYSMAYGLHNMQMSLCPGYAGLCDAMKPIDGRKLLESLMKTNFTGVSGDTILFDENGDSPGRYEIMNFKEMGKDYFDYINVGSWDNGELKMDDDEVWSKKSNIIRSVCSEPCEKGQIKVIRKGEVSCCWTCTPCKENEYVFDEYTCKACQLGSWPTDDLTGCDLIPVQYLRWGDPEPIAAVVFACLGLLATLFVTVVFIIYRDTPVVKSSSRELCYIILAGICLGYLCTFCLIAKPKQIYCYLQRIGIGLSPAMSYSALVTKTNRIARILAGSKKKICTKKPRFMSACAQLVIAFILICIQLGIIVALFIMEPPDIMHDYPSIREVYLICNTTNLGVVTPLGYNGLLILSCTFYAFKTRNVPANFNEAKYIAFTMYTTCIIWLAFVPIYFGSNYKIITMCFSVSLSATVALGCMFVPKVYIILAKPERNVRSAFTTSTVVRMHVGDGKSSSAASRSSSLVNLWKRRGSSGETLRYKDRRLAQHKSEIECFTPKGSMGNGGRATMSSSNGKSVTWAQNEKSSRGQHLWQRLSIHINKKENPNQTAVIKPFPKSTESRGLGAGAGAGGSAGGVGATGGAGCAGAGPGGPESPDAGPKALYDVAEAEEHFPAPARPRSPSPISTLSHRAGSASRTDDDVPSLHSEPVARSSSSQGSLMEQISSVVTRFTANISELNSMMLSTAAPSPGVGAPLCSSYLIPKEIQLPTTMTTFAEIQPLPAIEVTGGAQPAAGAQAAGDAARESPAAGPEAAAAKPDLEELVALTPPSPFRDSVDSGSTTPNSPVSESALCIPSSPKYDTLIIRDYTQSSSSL
compound,measurement,setting,value
Cc1cccc(C#CC=C2CC(C)(C)NC(C)(C)C2)n1,Ki,[1],0.0269 µM
COc1cc(OC)nc(C(=O)N2CC/C(=C\C#Cc3cccc(Cl)c3)C(C)(C)C2)n1,EC50,[2],0.0517 µM
same,Ki,[1],0.00224 µM

# — ChEMBL document CHEMBL5729315, “Heterocyclylmethylidene derivatives and their use as modulators of mGluR5 receptors” (2022)
